# Test results taken from patent publication US9067949B2, “Benzofuro[3,2-c] pyridines and related analogs as serotonin sub-type 6 (5-HT6) modulators for the treatment of obesity, metabolic syndrome, cognition and schizophrenia” (Albany Molecular Research, Inc., priority 2011, dated 2015).
# pKi: −log10 of the molar value. Structures can show the parent of a compound that is named as a salt.
# Tested on: not given
# Test: not given
# Conditions: not given
row,SMILES,melting point
1,"Cl.O=S(=O)(c1cc(F)cc(F)c1)c1ccc2oc3c(c2c1)CNCC3 [Example 37, 8-(3,5-Difluorophenylsulfonyl)-1,2,3,4-tetrahydrobenzofuro[3,2-c]pyridine hydrochloride]",275 to 281 °C (dec.)
2,"Cl.O=S(=O)(c1cccc(F)c1)c1cc(Cl)c2oc3c(c2c1)CNCC3 [Example 47, 6-Chloro-8-(3-fluorophenylsulfonyl)-1,2,3,4-tetrahydrobenzofuro[3,2-c]pyridine hydrochloride]",276 to 278 °C

# Target: human 5-HT6 receptor (Homo sapiens (Human), UniProt P50406)
# Test: 5-HT6 radioligand binding assay (SPA format, [N-methyl-3H]-LSD)
# Conditions: human 5-HT6 receptor membranes, 10 nM [N-methyl-3H]-LSD; Ki by Cheng-Prusoff; hydrochloride; read-out: human 5HT6 Ki
# Method: The relative affinities of the various compounds for the 5-HT6 receptor were measured in a radioligand binding assay, using a scintillation proximity assay (SPA) format.
# For binding analysis vs. the human receptor, samples were incubated in 50 mM Tris-HCl, pH 7.5, 5 mM MgCl2, 1 mM EDTA (4% DMSO final) with 10 nM [N-methyl-^3H]-LSD (Perkin Elmer), 2.5 ng of human 5-HT6 receptor membranes (Millipore) and 50 μg SPA beads (PVT-PEI-WGA, GE Healthcare) per well in a final volume of 0.2 mL. […] Binding reactions were performed in PicoPlate96 microtiter plates (Perkin Elmer) by consecutively adding 50 μL of each competing compound or buffer, SPA beads, radioligand and 5-HT6 receptor membranes. After an overnight incubation at room temperature on a Nutator mixer, plates were centrifuged for 15 min at 1,500 rpm, followed by incubation in the dark for 10 min. […] Total binding control contained compound dilution buffer only; nonspecific binding is determined in the presence of 100 μM 5-hydroxytryptamine. Specific binding was determined by subtracting nonspecific binding from total binding.
# All experiments were performed in duplicate using ten concentrations of competing ligand, with clozapine included as a control in every run. IC50 values were determined from specific binding data using XLfit4.1 curve fitting software from IDBS Ltd. The inhibition constant (Ki) was calculated using the Cheng-Prusoff equation: (Ki=IC50/(1+(L/KD)), where L=concentration of radioligand in the assay, and KD=affinity of the radioligand for the receptor.
# Sequence of human 5-HT6 receptor (P50406 whole entry): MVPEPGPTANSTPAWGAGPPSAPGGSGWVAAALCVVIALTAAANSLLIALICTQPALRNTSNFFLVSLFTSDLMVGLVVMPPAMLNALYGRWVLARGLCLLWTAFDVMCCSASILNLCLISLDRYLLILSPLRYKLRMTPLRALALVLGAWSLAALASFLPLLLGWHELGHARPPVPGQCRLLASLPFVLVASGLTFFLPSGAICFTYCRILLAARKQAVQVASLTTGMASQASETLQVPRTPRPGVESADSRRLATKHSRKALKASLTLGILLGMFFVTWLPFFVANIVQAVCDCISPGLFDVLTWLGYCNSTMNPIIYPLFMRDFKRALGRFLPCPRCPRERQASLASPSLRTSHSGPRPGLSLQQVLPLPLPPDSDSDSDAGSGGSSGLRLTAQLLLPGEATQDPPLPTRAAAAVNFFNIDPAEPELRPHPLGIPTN
row,SMILES,pKi
1,"CC1NCCc2oc3c(Cl)cc(S(=O)(=O)c4ccccc4)cc3c21 (single isomer, unassigned; (-)) [Example 82b, (−) 6-chloro-1-methyl-8-(phenylsulfonyl)-1,2,3,4-tetrahydrobenzofuro[3,2-c]pyridine hydrochloride]",9.82
2,"CC1Cc2oc3c(Cl)cc(S(=O)(=O)c4ccccc4)cc3c2CN1 (racemic) [Example 81b, 6-chloro-3-methyl-8-(phenylsulfonyl)-1,2,3,4-tetrahydrobenzofuro[3,2-c]pyridine hydrochloride]",7.72
3,"CC1NCCc2oc3c(Cl)cc(S(=O)(=O)c4ccccc4)cc3c21 (racemic) [Example 81a, 6-chloro-1-methyl-8-(phenylsulfonyl)-1,2,3,4-tetrahydrobenzofuro[3,2-c]pyridine hydrochloride]",9.46

# Same assay, conditions: human 5-HT6 receptor membranes, 10 nM [N-methyl-3H]-LSD; Ki by Cheng-Prusoff; read-out: human 5HT6 Ki
row,SMILES,pKi
1,"Cl.O=S(=O)(c1cc(F)cc(F)c1)c1ccc2oc3c(c2c1)CNCC3 [Example 37, 8-(3,5-Difluorophenylsulfonyl)-1,2,3,4-tetrahydrobenzofuro[3,2-c]pyridine hydrochloride]",6.47
2,"Cl.O=S(=O)(c1cccc(F)c1)c1cc(Cl)c2oc3c(c2c1)CNCC3 [Example 47, 6-Chloro-8-(3-fluorophenylsulfonyl)-1,2,3,4-tetrahydrobenzofuro[3,2-c]pyridine hydrochloride]",9.41
3,Cc1cc(S(=O)(=O)c2ccc(F)cc2)cc2c3c(oc12)CCNC3 [Example 203],8.82
4,O=S(=O)(c1ccc(OC(F)F)cc1)c1cc(Cl)c2oc3c(c2c1)CNCC3 [Example 113],8.66
5,COc1cc(S(=O)(=O)c2cc(F)cc(Cl)c2)cc2c3c(oc12)CCNC3 [Example 188],9.96
6,COc1cc(S(=O)(=O)c2cccc(F)c2)cc2c3c(oc12)CCNC3 [Example 166],9.70
7,O=S(=O)(c1cccc(CO)c1)c1cc(Cl)c2oc3c(c2c1)CNCC3 [Example 110],8.36
8,COc1cccc(S(=O)(=O)c2cc(Cl)c3oc4c(c3c2)CNCC4)c1 [Example 123],8.92
9,COCc1ccc(S(=O)(=O)c2cc(Cl)c3oc4c(c3c2)CNCC4)cc1 [Example 109],7.85
10,COc1cc(S(=O)(=O)c2cccc([C@@H](C)O)c2)cc2c3c(oc12)CCNC3 [Example 174],9.16
11,N#Cc1cc(S(=O)(=O)c2ccccc2)cc2c3c(oc12)CCNC3 [Example 210],8.38
12,"N#Cc1cc(S(=O)(=O)c2cccc(F)c2)cc2c3c(oc12)CCNC3 [Example 73, 8-(3-fluorophenylsulfonyl)-1,2,3,4-tetrahydrobenzofuro[3,2-c]pyridine-6-carbonitrile hydrochloride]",8.37
13,Cc1cc(S(=O)(=O)c2cccc(F)c2)cc2c3c(oc12)CCNC3 [Example 200],9.30
14,COc1cc(S(=O)(=O)c2ccc(C(F)(F)F)cc2)cc2c3c(oc12)CCNC3 [Example 162],9.31
15,CC(O)c1cc(S(=O)(=O)c2ccccc2)cc2c3c(oc12)CCNC3 (centres unmarked) [Example 221],8.24
16,O=S(=O)(c1ccc2c(c1)COC2)c1cc(Cl)c2oc3c(c2c1)CNCC3 [Example 156],8.12
17,N#Cc1cc(S(=O)(=O)c2ccc(F)cc2)cc2c3c(oc12)CCNC3 [Example 209],7.74
18,"O=S(=O)(c1ccccc1)c1cc(CO)c2oc3c(c2c1)CNCC3 [Example 74, (8-(phenylsulfonyl)-1,2,3,4-tetrahydrobenzofuro[3,2-c]pyridin-6-yl)methanol hydrochloride]",7.89
19,COc1cc(Sc2ccccc2)cc2c3c(oc12)CCNC3 [Example 230],8.72

row,SMILES,pKi
1,N#Cc1cc(S(=O)(=O)c2cc(F)cc(F)c2)cc2c3c(oc12)CCNC3 [Example 208],7.30
2,O=S(=O)(c1ccc2c(c1)CCOC2)c1cc(Cl)c2oc3c(c2c1)CNCC3 [Example 106],8.60
3,Cc1cc(S(=O)(=O)c2ccc3sccc3c2)cc2c3c(oc12)CCNC3 [Example 204],9.64
4,COc1cc(S(=O)(=O)c2cn(C)c3ccccc23)cc2c3c(oc12)CCNC3 [Example 183],9.80
5,O=S(=O)(c1ccccc1)c1cc(-c2cc[nH]n2)c2oc3c(c2c1)CNCC3 [Example 224],8.35
6,COc1cc(S(=O)(=O)c2ccc(C(C)O)cc2)cc2c3c(oc12)CCNC3 (centres unmarked) [Example 170],8.54
7,CN1CCc2oc3c(Cl)cc(S(=O)(=O)c4ccccc4)cc3c2C1 [Example 116],9.00
8,CC(C)(O)c1cc(S(=O)(=O)c2ccccc2)cc2c3c(oc12)CCNC3 [Example 220],7.26
9,CC(CO)N1CCc2oc3c(Cl)cc(S(=O)(=O)c4ccccc4)cc3c2C1 (centres unmarked) [Example 152],8.47
10,COc1cc(S(=O)(=O)c2ccc(F)cc2)cc2c3c(oc12)CCNC3 [Example 169],9.12
11,"O=S(=O)(c1cccc(C(F)(F)F)c1)c1cc(Cl)c2oc3c(c2c1)CNCC3 [Example 45, 6-Chloro-8-(3-trifluoromethylphenylsulfonyl)-1,2,3,4-tetrahydrobenzofuro[3,2-c]pyridine hydrochloride]",9.32
12,CC(O)c1ccc(S(=O)(=O)c2cc(Cl)c3oc4c(c3c2)CNCC4)cc1 (centres unmarked) [Example 137],8.25
13,COc1cc(S(=O)(=O)c2ccccc2)cc2c3c(oc12)CCC(O)C3 (centres unmarked) [Example 238],9.23
14,Cc1cc(S(=O)(=O)c2cccc(C(F)(F)F)c2)cc2c3c(oc12)CCNC3 [Example 201],9.66
15,O=S(=O)(c1cc(Cl)c2oc3c(c2c1)CNCC3)c1ccccc1OC(F)(F)F [Example 102],8.48
16,"COc1cc(S(=O)(=O)c2ccc3[nH]ccc3c2)cc2c3c(oc12)CCNC3 [Example 70, 8-(1H-indol-5-ylsulfonyl)-6-methoxy-1,2,3,4-tetrahydrobenzofuro[3,2-c]pyridine hydrochloride]",10.08
17,O=S(=O)(c1ccc(F)cc1)c1cc(F)c2oc3c(c2c1)CNCC3 [Example 207],7.36
18,COc1cc(S(=O)(=O)c2ccc([C@@H](C)O)cc2)cc2c3c(oc12)CCNC3 [Example 172],8.72
19,O=S(=O)(c1ccc2[nH]ccc2c1)c1cc(Cl)c2oc3c(c2c1)CNCC3 [Example 143],9.89

row,SMILES,pKi
1,Cc1cc(S(=O)(=O)c2cc(F)cc(F)c2)cc2c3c(oc12)CCNC3 [Example 197],8.89
2,O=S(=O)(c1cc(Cl)c2oc3c(c2c1)CNCC3)c1ccccc1CO [Example 122],8.27
3,COc1cc(S(=O)(=O)c2ccc3c(c2)COC3)cc2c3c(oc12)CCNC3 [Example 193],9.10
4,COc1cc([S+]([O-])c2ccccc2)cc2c3c(oc12)CCNC3 (centres unmarked) [Example 235],8.96
5,COc1cc(S(=O)(=O)c2cccc(C(O)C(F)(F)F)c2)cc2c3c(oc12)CCNC3 (centres unmarked) [Example 178],9.49
6,"CN(C)C(=O)C1NCCc2oc3c(Cl)cc(S(=O)(=O)c4ccccc4)cc3c21 (centres unmarked) [Example 88, 6-chloro-N,N-dimethyl-8-(phenylsulfonyl)-1,2,3,4-tetrahydrobenzofuro[3,2-c]pyridine-1-carboxamide hydrochloride]",6.60
7,O=S(=O)(c1cc(F)cc(F)c1)c1cc(Cl)c2oc3c(c2c1)CNCC3 [Example 129],8.00
8,COc1cc(S(=O)(=O)c2ccc(Cl)cc2)cc2c3c(oc12)CCNC3 [Example 189],9.55
9,Cc1cc(S(=O)(=O)c2ccc(Cl)cc2)cc2c3c(oc12)CCNC3 [Example 196],8.96
10,COc1cc(S(=O)(=O)c2cccc(OC(F)F)c2)cc2c3c(oc12)CCNC3 [Example 160],9.96
11,COc1cc(S(=O)(=O)c2cccc(C(C)O)c2)cc2c3c(oc12)CCNC3 (centres unmarked) [Example 173],9.22
12,COc1cc(S(=O)(=O)c2ccc(C3CCOC3)cc2)cc2c3c(oc12)CCNC3 (centres unmarked) [Example 180],8.66
13,"O=S(=O)(c1ccccc1)c1cc(-n2cccn2)c2oc3c(c2c1)CNCC3 [Example 76, 8-(phenylsulfonyl)-6-(1H-pyrazol-1-yl)-1,2,3,4-tetrahydrobenzofuro[3,2-c]pyridine hydrochloride]",8.03
14,Cc1cc(S(=O)(=O)c2ccc(F)c(F)c2)cc2c3c(oc12)CCNC3 [Example 199],8.70
15,O=S(=O)(c1ccccc1)c1cc(Cl)c2oc3c(c2c1)CN(C1COC1)CC3 [Example 150],7.12
16,COc1cc(S(=O)(=O)c2cccc([C@H](C)O)c2)cc2c3c(oc12)CCNC3 [Example 175],8.92
17,"O=S(=O)(c1ccccc1)c1cc(Cl)c2oc3c(c2c1)CNC(CO)C3 (centres unmarked) [Example 86, (6-chloro-8-(phenylsulfonyl)-1,2,3,4-tetrahydrobenzofuro[3,2-c]pyridin-3-yl)methanol hydrochloride]",6.28
18,Cn1cc(S(=O)(=O)c2cc(C#N)c3oc4c(c3c2)CNCC4)c2ccccc21 [Example 211],9.40
19,COc1cc(S(=O)(=O)c2ccc(OC(F)(F)F)cc2)cc2c3c(oc12)CCNC3 [Example 165],8.72
